This is an account of results in patent US20050267166A1, “Continuous dosing regimen” (priority 2004, published 2005).

For test [1], the system named is HCT-15 human colon carcinoma. Nature of the test: HCT-15 human colon carcinoma xenografts. The following applies: in words. It is filed as in vivo. From the text:
HCT-15 is a human colon carcinoma derived cell line. It is MDR positive, and expresses both mutant p53 and oncogenic K-ras. The HCT-15 cell line has one of the highest levels of mdr-1/P-glycoprotein expression of cells from the NCI tumor cell line panel.
Effect of Cytotoxic Agents on the Growth of HCT-15 Human Colon Carcinoma Xenografts
A general note: A xenograft is tissue or cells of one species grown in another, often human tumour cells in immunodeficient mice.

Test [2] deals with M5076 transplantable murine reticulum cell sarcoma. The following applies: for ILS: comparator drugs, dose not given; for antitumor activity in the M5076 model: in words.
For test [3], the system named is NCI-H460 human non-small cell lung carcinoma. Nature of the test: NCI-H460 xenograft model. The format is in vivo. Particulars: in words. From the text:
NCI-H460 is a human non-small cell lung carcinoma derived cell line. It is MDR negative, has wild type p53, and contains an oncogenic K-ras mutation.

Test [4] concerns C26 colon tumors. Nature of the test: C26 colon tumors grown in the flank of CDF-1 mice. It is filed as in vivo. Particulars: comparator, regimen not given.
Test [5] has as its target biotinylated bovine brain tubulin.

Take `CC[C@]1(O)C[C@H]2CN(CCc3c([nH]c4ccccc34)[C@@](C(=O)OC)(c3cc4c(cc3OC)N(C=O)[C@H]3[C@@](O)(C(=O)OC)[C@H](OC(C)=O)[C@]5(CC)C=CCN6CC[C@]43[C@@H]65)C2)C1` [vincristine, reference compound]: the “efficacy in HCT-15 xenografts” value in test [1] was “not efficacious”. Further, in test [2], the ILS (commonly how much longer treated animals lived than controls) worked out at 17% and the “antitumor activity in the M5076 model” value is “only marginally active”. Also, the “efficacy in the NCI-H460 xenograft model” value in test [3] is on record as “lacked activity”.
Consider `COc1cccc2c1C(=O)c1c(O)c3c(c(O)c1C2=O)C[C@@](O)(C(=O)CO)C[C@@H]3O[C@H]1C[C@H](N)[C@H](O)[C@H](C)O1` [doxorubicin], for which, in test [2], the ILS came to 13% and the “antitumor activity in the M5076 model” value is “only marginally active”.
As for `CC(=O)O[C@H]1C(=O)[C@@]2(C)[C@H]([C@H](OC(=O)c3ccccc3)[C@]3(O)C[C@H](OC(=O)[C@H](O)[C@@H](NC(=O)c4ccccc4)c4ccccc4)C(C)=C1C3(C)C)[C@]1(OC(C)=O)CO[C@@H]1C[C@@H]2O` [paclitaxel, reference compound], the “efficacy against C26 colon tumors” value in test [4] was “not efficacious”. In test [1], the “efficacy in HCT-15 xenografts” value is listed as “not efficacious”. In test [2], the “antitumor activity in the M5076 model” value is recorded as “resistant”. Moreover, the “efficacy in the NCI-H460 xenograft model” value in test [3] is given as “lacked activity”.
Regarding `CC[C@]1(O)C[C@@H]2CN(CCc3c([nH]c4ccccc34)[C@@](C(=O)OC)(c3cc4c(cc3OC)N(C)[C@H]3[C@@](O)(C(=O)OC)[C@H](OC(C)=O)[C@]5(CC)C=CCN6CC[C@]43[C@@H]65)C2)C1` [vinblastine], in test [5] (competition of [3H]colchicine), the Ki (in general, a dissociation constant, usually derived from enzyme kinetics or from competition with a known ligand) is above 100 µM. In test [5] (in words), the “displacement of [3H]colchicine from the colchicine site of tubulin β-subunits” value is recorded as “do not displace”.
Consider `O=P1(N(CCCl)CCCl)NCCCO1` (stereo not shown) [cyclophosphamide], for which the “antitumor activity in the M5076 model” value in test [2] is given as “sensitive”.
